The text below walks through data of publication PMC9415608, “Design, Synthesis and Biological Investigation of 2-Anilino Triazolopyrimidines as Tubulin Polymerization Inhibitors with Anticancer Activities” (Pharmaceuticals, 2022).

One assay deals with HeLa cell xenograft. Briefly: Zebrafish xenograft model with DiI-labeled HeLa cells. In kind it is in vivo, Zebrafish (Danio rerio). As to conditions: 24 h treatment, 30 or 300 nM. An excerpt:
Prior to microinjections into Tg zebrafish embryos (fli1: EGFP), HeLa tumor cells were labeled with the VybrantTM DiI dye (Invitrogen, ThermoFisher, Carlsbad, CA, USA). The fluorescent cells were loaded into borosilicate glass capillary needles (OD/ID: 1.00/0.75 mm, World Precision Instruments (WPI, Friedberg, Germany) and injected (200 cells), through a pneumatic picopump, into the Cuvier duct of 48 hpf embryos previously anesthetized with tricaine (0.02%, Sigma-Aldrich, Milan, Italy).
After injection, the xenograft-harboring larvae were incubated to recover at 34° C in fish water containing phenylthiourea (PTU) to inhibit the pigmentation process. After 2 h from the injection, the embryos were examined to ensure homogeneity of the xenografts. For drug treatments, only successfully injected xenograft larvae were selected, with approximately 200 HeLa fluorescent cells scattered around the caudal area.
The injected xenografts were exposed to the doses of 3d used above with DMSO as control.
For cancer cell imaging and fluorescence quantification, anesthetized embryos were distributed to 96-well plates with one embryo/well. Initially (time 0 h, pre-treatment) and after one-day post-treatment, the tumors were photographed with a Zeiss AxioObserver microscope for live-cell imaging.

Assay [1] has as its system HeLa cells. Briefly: Cell cycle analysis by flow cytometry (PI). In kind it is cell-based, human. Here is the method:
For these experiments, HeLa cells were used, which were seeded in 6-well plates at a concentration of 5 × 10^5/well in a final volume of 2 mL culture medium. The cells were then treated with the test compounds for 24 h at the indicated concentrations. After this incubation period, the cells were detached with trypsin-EDTA and harvested by centrifugation. The pellet thus obtained was fixed in 70% ice-cold ethanol.
After this incubation period, the cells were detached with trypsin-EDTA and harvested by centrifugation. The pellet thus obtained was fixed in 70% ice-cold ethanol for at least 1 h. The cells thus fixed were treated with a 0.1% v/v solution of Triton_X-100 in phosphate buffered saline (PBS) containing RNAseA and propidium iodide (PI) at the final concentration of 0.02 mg/mL. The cells were incubated at room temperature for 30 min and then analyzed on a Cytomic FC500 flow cytometer (Beckman Coulter) in the FL3 channel. DNA histograms were analyzed using MultiCycle for Windows (Phoenix Flow Systems, San Diego, CA, USA).

Another assay concerns Bovine brain tubulin. Briefly: Inhibition of [3H]colchicine binding to tubulin. As to conditions: tubulin 0.5 µM, [3H]colchicine 5 µM, tested compound 5 µM. On the procedure: Bovine brain tubulin was purified as described previously. To evaluate the effects of the compounds on tubulin assembly in vitro [80], varying concentrations were preincubated with 10 μM tubulin in 0.8 M monosodium glutamate (pH 6.6) at 30 °C and the reaction mixtures then cooled to 0 °C. After addition of GTP, the mixtures were transferred to 0 °C cuvettes in Beckman Coulter (Brea, CA, USA) DU-7400/DU-7500 recording spectrophotometers equipped with electronic temperature controllers and warmed to 30 °C, and the assembly of tubulin was observed turbidimetrically. […] Inhibition of colchicine binding to tubulin was measured as described before, except that the reaction mixtures contained 0.5 μM tubulin and 5 μM each of [^3H]colchicine and test compound. Only one DEAE-cellulose filter was used per sample, and filtration was by gravity.
Bovine brain tubulin (see ref. [79] for details of purification) was used to examine effects on tubulin polymerization and colchicine binding. Briefly, in the polymerization experiments, different compound concentrations were preincubated with 10 µM tubulin for 15 min at 30 °C and cooled on ice. After GTP was added to each reaction mixture, the samples were transferred to 0 °C cuvettes in recording spectrophotometers with electronic temperature controllers. The temperature was raised to 30 °C over about 30 s, and turbidity development was followed for 20 min at 350 nm. […] In the current studies, [^3H]colchicine (from American Radiolabeled Corp., St. Louis, MO) binding was measured after 10 min at 37 °C. Reaction mixtures contained 0.5 µM tubulin and 5.0 µM each of the [^3H]colchicine and the potential inhibitor, and a single DEAE-cellulose filter was used for each sample, with gravity filtration.

Assay [2] relates to HeLa cells. Briefly: Mitochondrial potential, JC-1 flow cytometry. In kind it is cell-based, human. As to conditions: 24 h treatment, increased further at 48 h. On the procedure:
The analysis of the mitochondrial potential was carried out by flow cytometric analysis. Briefly, the cells treated with the test compound were labeled with the JC-1 dye as previously described. The labeled cells were analyzed using the Coulter Cytomics FC500 (Beckman Coulter) in the FL1 and FL2 channel, respectively.
(In flow cytometry, cells or beads pass a laser one at a time.)

`COc1cc(-c2ccnc3nc(Nc4ccc(C)cc4)nn23)cc(OC)c1OC` [Compound 3d, N-(p-Tolyl)-7-(3,4,5-trimethoxyphenyl)-[1,2,4]triazolo[1,5-a]pyrimidin-2-amine]: in the assay on HeLa cell xenograft, the “fluorescence intensity of tumor xenografts” value is listed as “decreased in a dose-dependent manner, reaching statistical significance at 300 nM” and the “number of disseminated cancer cells” value is “significantly reduced the number of disseminated cancer cells”. In addition, in the assay on HeLa cells [1] (24 h), the “concentration at which increase in G2/M cells was evident” value was determined as 25 nM. For the same compound, in the assay with HeLa cells [1] (24 h, 10, 25 or 50 nM), the “effect on cell cycle (G2/M)” value was “significant G2/M arrest in a concentration-dependent manner”. In addition, in the assay with Bovine brain tubulin, the “Colchicine Binding % Inhibition ± SD” value was found to be 72 ± 5%. For the same compound, the “mitochondrial depolarization (JC-1 monomers)” value with HeLa cells [2] is “significant increase in the percentage of monomers”.
